Columns and labels:
[1] = tested on: PDE4D; assay: PET imaging in monkey brain, baseline and preblock; type: in vivo, rhesus monkeys (Macaca mulatta)
[2] = target: PDE4B1 (S133D) (Homo sapiens, UniProt Q07343, S133D/S659A/S661A); assay: PDE4 enzyme inhibition assay, counter-screen; type: biochemical
[3] = Mouse iv cassette pharmacokinetics, brain uptake; type: in vivo, CD1 mice; settings: intravenous dosing; SUV = brain Cmax (ng/mL)/dose (mg/kg)/1000
[4] = Radioligand lipophilicity; type: physicochemical; settings: n-octanol/sodium phosphate buffer, pH 7.4
[5] = target: PDE4D (Homo sapiens, UniProt Q08499); assay: PET imaging in human brain; type: in vivo; settings: po, read-out: occupancy of the target enzyme
PDE4D (Homo sapiens, UniProt Q08499), sequence (Q08499 307-809 limits assumed): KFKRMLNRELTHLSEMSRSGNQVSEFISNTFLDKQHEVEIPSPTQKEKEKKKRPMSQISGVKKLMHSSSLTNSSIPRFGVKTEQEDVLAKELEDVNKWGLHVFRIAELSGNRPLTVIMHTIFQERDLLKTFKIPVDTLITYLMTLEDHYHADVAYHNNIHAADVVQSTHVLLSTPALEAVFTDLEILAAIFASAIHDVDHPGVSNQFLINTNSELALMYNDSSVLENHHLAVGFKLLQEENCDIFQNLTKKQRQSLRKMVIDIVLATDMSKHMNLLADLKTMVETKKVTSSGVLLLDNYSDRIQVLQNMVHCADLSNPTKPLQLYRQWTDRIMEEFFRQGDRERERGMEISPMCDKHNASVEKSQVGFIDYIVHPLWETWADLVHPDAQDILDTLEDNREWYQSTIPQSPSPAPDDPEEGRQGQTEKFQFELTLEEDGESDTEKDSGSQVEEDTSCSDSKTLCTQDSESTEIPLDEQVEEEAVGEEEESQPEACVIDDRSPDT

[6] = tested on: panel of GPCRs and other binding sites; assay: NIMH Psychoactive Drug Screening Panel
[7] = target: serotonin 5-HT2B receptor (Homo sapiens, UniProt P41595); assay: NIMH Psychoactive Drug Screening Panel, hit; type: binding
serotonin 5-HT2B receptor, sequence (P41595 whole entry): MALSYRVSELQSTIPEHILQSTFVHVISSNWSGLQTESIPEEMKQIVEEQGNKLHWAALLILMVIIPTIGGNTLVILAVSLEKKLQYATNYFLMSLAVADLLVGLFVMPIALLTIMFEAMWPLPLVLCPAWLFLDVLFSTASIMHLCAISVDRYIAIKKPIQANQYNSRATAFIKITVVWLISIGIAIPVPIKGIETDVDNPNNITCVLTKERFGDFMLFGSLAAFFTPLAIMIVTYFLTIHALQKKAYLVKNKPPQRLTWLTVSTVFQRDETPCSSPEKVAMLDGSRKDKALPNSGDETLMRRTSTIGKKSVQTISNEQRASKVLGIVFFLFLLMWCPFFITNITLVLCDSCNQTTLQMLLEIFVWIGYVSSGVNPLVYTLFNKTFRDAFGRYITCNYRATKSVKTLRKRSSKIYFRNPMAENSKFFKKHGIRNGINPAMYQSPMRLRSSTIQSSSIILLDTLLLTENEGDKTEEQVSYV

[8] = target: Human PDE4D7* (S129D) (Homo sapiens, UniProt Q08499, S190D/S715A/S717A); assay: PDE4 enzyme inhibition assay
Human PDE4D7* (S129D), sequence (Q08499 1-748 isoform Q08499-11 S129D/S654A/S656A): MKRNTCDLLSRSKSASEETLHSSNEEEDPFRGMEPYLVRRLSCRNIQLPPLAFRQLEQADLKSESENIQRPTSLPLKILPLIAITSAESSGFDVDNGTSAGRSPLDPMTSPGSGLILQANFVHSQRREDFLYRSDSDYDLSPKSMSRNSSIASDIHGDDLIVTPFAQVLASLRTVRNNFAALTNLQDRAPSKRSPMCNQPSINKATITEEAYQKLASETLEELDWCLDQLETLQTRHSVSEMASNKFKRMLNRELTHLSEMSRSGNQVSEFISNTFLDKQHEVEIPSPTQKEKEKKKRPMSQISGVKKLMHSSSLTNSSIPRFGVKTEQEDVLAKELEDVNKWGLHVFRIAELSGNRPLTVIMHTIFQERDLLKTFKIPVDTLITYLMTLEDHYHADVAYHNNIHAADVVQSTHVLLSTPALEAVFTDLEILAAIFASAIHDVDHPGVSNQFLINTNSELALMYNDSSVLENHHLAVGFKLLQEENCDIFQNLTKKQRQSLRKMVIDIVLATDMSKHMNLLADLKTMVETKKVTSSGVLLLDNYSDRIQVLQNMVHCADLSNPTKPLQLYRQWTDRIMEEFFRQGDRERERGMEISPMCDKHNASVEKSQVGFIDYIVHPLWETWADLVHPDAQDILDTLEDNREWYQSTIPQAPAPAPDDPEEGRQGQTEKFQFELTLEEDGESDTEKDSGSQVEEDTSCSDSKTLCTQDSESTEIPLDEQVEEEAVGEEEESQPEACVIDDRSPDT

PDE4B1 (S133D), sequence (Q07343 whole entry S133D/S659A/S661A): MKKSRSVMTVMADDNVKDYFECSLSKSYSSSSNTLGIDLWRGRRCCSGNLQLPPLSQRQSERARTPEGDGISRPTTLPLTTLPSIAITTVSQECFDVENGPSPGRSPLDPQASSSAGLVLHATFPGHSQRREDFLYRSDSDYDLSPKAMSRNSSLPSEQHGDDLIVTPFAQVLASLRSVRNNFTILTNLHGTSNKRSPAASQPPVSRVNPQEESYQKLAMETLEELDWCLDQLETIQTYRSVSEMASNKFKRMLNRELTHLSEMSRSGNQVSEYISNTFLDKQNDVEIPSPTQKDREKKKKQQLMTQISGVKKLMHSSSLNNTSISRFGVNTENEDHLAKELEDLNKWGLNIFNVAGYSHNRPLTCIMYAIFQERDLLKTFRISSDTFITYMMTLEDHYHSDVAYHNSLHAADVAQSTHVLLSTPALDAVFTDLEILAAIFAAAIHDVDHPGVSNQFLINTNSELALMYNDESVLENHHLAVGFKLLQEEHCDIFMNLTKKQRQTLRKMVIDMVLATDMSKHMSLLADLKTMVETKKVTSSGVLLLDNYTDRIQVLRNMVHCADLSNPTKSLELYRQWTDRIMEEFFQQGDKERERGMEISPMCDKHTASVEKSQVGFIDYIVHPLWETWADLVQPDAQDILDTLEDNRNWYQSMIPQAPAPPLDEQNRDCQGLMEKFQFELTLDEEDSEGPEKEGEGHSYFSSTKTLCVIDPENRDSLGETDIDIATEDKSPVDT

Question: With `COc1ccc(C2CNC(=O)C2)cc1OC1CCCC1` (centres unmarked) [rolipram] as the molecule, how does the “PDE4D target occupancy (Lassen plot)” value ([1]; radioligand [11C]T1650, blocking dose 0.2 mg/kg i.v.) read?
Answer: 63%

Question: And the “PDE4D target occupancy (Lassen plot)” value ([1]; radioligand [11C]T1650, blocking dose 1.0 mg/kg i.v.)?
Answer: 93%

Question: And the “PDE4D target occupancy (Lassen plot)” value ([1]; radioligand [11C]T1660, rolipram 1.0 mg/kg i.v.)?
Answer: 79%

Question: For `COc1ccc(Cc2ccncc2)nc1-c1cccc([N+](=O)[O-])c1` [Compound 5, 3-methoxy-2-(3-nitrophenyl)-6-[(pyridin-4-yl)methyl]pyridine], which IC50 [2] is on record?
Answer: 280 nM

Question: What about the “SUV, brain uptake in mice” value [3] of the same molecule?
Answer: 1.76 SUV

Question: And the logD [4]?
Answer: 3.38

Question: For `O=C(O)Cc1ccc(Cc2cc(-c3cccc(Cl)c3)nc(C(F)(F)F)c2)cc1` [BPN14770], which “PDE4D target occupancy (Lassen plot)” value ([1]; radioligand [11C]T1650, blocking dose 3 mg/kg i.v.) is on record?
Answer: 63%

Question: And the receptor occupancy at 50 mg [5]?
Answer: ~40%

Question: For `COc1ccc(Cc2cn[nH]c2)nc1-c1cccc([N+](=O)[O-])c1` [Compound 6], which IC50 [2] is on record?
Answer: 1120 nM

Question: And the “SUV, brain uptake in mice” value [3]?
Answer: 1.76 SUV

Question: And the off-target binding activity [6]?
Answer: did not reveal significant off-target binding activity

Question: What about the IC50 [7] of the same molecule?
Answer: 766 nM

Question: And the logD [4]?
Answer: 2.89

Question: Which IC50 [2] does the source give for `Cn1cc(Cc2ccc(OC(F)F)c(-c3cccc(Cl)c3)n2)cn1` [Compound 4, 2-(3-chlorophenyl)-3-(difluoromethoxy)-6-[(1-methyl-1H-pyrazol-4-yl)methyl]pyridine] here?
Answer: 858 nM

Question: And the “SUV, brain uptake in mice” value [3]?
Answer: 1.44 SUV

Question: And the IC50 [8]?
Answer: 0.5 nM

Question: And the logD [4]?
Answer: 3.07

Question: For `COc1ccc(Cc2ccncc2)nc1-c1cccc(Cl)c1` [Compound 3, 2-(3-chlorophenyl)-3-methoxy-6-[(pyridin-4-yl)methyl]pyridine], which IC50 [2] is on record?
Answer: 720 nM

Question: And the “SUV, brain uptake in mice” value [3]?
Answer: 0.94 SUV

Question: And the logD [4]?
Answer: 3.45

— publication PMC7444660 (ACS chemical neuroscience, 2020)
